Results published in ChEMBL document CHEMBL1131488, “Dihydropyrancarboxamides related to zanamivir: a new series of inhibitors of influenza virus sialidases. 1. Discovery, synthesis, biological activity, and structure-activity relationships of 4-guanidino- and 4-amino-4H-pyran-6-carboxamides” (J Med Chem, 1998).

Columns and labels:
[1] = target: Neuraminidase (Influenza A virus (A/Puerto Rico/8/1934(H1N1)), UniProt P03468); test: Inhibition of influenza A virus sialidase activity
Neuraminidase [2] = target: T1, Neuraminidase (Influenza B virus (strain B/Lee/1940), UniProt P03474)
[3] = target: Neuraminidase (Influenza A virus (A/Puerto Rico/8/1934(H1N1)), UniProt P03468)
Neuraminidase [4] = target: T1, Neuraminidase; test: Inhibition of influenza B virus sialidase activity
[5] = target: Neuraminidase (Influenza A virus (A/Puerto Rico/8/1934(H1N1)), UniProt P03468); test: Inhibition of sialidase (Flu A, 5 nM)
Neuraminidase [6] = target: T1, Neuraminidase; remark: listed apart in the source
Neuraminidase [7] = target: T1, Neuraminidase; test: Inhibitory activity against sialidase (influenza B virus by plaque reduction assay)
[8] = target: Neuraminidase (Influenza A virus (A/Puerto Rico/8/1934(H1N1)), UniProt P03468); remark: listed apart in the source
Mus musculus [9] = test: Compound was tested for in vivo efficacy in mouse model of influenza A virus A/Singapore/1/57 at dose of 1 mg/kg.; assay type: functional
[10] = t1/2, plasma elimination half life, the time taken for the plasma concentrations to fall by one half, once distribution is complete at a dose of 50 mg/kg; assay type: ADME, organism-based; design: dose 50 mg/kg
[11] = target: Neuraminidase (Influenza A virus (A/Puerto Rico/8/1934(H1N1)), UniProt P03468); remark: listed apart in the source
Mus musculus [12] = test: Compound was tested for concentration of intranasally administered drug (10 mg/kg) which reduces virus titer by 90%; assay type: functional; settings: inhaled or nasal
[13] = Vss, volume of distribution at steady state at a dose of 50 mg/kg; assay type: ADME, organism-based; design: dose 50 mg/kg; settings: in vivo, read-out: Vss
[14] = target: Neuraminidase (Influenza A virus (A/Puerto Rico/8/1934(H1N1)), UniProt P03468); remark: listed apart in the source
[15] = Clp, plasma clearance at a dose of 50 mg/kg; assay type: ADME, organism-based; design: dose 50 mg/kg; settings: read-out: Clp
[16] = target: Neuraminidase (Influenza A virus (A/Puerto Rico/8/1934(H1N1)), UniProt P03468); remark: listed apart in the source
Mus musculus [17] = test: Compound was tested for in vivo efficacy in mouse model of influenza A virus A/Singapore/1/57 at dose of 10 mg/kg.; assay type: functional
Mus musculus [18] = test: Compound was tested for in vivo efficacy in mouse model of influenza A virus A/Singapore/1/57 at dose of 50 mg/kg.; assay type: functional

T1 sequence (P03474 whole entry): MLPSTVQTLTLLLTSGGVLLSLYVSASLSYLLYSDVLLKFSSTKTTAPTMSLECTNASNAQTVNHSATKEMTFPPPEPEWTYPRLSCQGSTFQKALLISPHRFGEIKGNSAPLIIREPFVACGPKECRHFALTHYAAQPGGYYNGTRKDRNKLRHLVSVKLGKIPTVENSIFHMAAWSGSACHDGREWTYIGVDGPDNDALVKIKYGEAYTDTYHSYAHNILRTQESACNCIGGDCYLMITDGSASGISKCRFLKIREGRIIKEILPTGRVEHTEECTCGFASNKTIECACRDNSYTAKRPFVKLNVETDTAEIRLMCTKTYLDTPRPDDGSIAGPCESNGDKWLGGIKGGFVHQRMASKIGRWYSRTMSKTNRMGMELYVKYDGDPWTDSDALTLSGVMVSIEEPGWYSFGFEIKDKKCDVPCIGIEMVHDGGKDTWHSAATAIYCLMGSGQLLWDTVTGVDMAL
Neuraminidase (Influenza A virus (A/Puerto Rico/8/1934(H1N1)), UniProt P03468), sequence (P03468 whole entry): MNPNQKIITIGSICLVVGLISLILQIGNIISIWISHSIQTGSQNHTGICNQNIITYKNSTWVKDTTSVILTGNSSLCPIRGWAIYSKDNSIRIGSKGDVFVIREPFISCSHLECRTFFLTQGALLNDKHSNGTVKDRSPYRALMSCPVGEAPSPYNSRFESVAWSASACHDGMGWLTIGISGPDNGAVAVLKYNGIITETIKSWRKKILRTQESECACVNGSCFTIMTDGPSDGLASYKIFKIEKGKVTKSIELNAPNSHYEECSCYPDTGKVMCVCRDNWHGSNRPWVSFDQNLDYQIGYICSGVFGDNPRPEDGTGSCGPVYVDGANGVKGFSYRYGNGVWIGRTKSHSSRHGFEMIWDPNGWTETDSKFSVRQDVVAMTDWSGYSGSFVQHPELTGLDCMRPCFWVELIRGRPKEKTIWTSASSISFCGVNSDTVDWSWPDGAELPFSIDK

## CC(=O)N[C@@H]1[C@@H](N)C=C(C(=O)O)O[C@H]1C(=O)N1C(C)CCN1C (stereo not given in full)
[1]
  IC50: 210 nM
Neuraminidase [2]
  IC50: 20 µM
[3]
  IC50: 52 nM
Neuraminidase [4]
  IC50: 13 µM

## CC(=O)N[C@@H]1[C@@H](N)C=C(C(=O)O)O[C@H]1C(=O)NCCO
[5]
  IC50: 420 µM

## CC(=O)N[C@@H]1[C@@H](N)C=C(C(=O)O)O[C@H]1C(=O)N(CCN=[N+]=[N-])CCc1ccccc1
Neuraminidase [2]
  IC50: 28 µM
[3]
  IC50: 9 nM

## CC(=O)N[C@@H]1[C@@H](N)C=C(C(=O)O)O[C@H]1C(=O)NC1CCCCC1
[5]
  IC50: 19 µM
Neuraminidase [6]
  IC50: > 450 µM

## CC(=O)N[C@@H]1[C@@H](N)C=C(C(=O)O)O[C@H]1C(=O)N(CCCO)CCc1ccccc1
[1]
  IC50: 3000 nM
Neuraminidase [4]
  IC50: > 360 µM

## CC(=O)N[C@@H]1[C@@H](N)C=C(C(=O)O)O[C@H]1C(=O)N(CCO)CCc1ccccc1
[1]
  IC50: 12 nM
Neuraminidase [4]
  IC50: 100 µM

## CC(=O)N[C@@H]1[C@@H](N)C=C(C(=O)O)O[C@H]1C(=O)N1CCCC1C (stereo not given in full)
[1]
  IC50: 310 nM
Neuraminidase [4]
  IC50: 210 µM

## CC(=O)N[C@@H]1[C@@H](N)C=C(C(=O)O)O[C@H]1C(=O)N(CCc1ccccc1)CC(C)C
[1]
  IC50: 14 nM

## CC(=O)N[C@@H]1[C@@H](N)C=C(C(=O)O)O[C@H]1C(=O)N(CCN)CCc1ccccc1
[1]
  IC50: 47000 nM
Neuraminidase [4]
  IC50: 260 µM

## CC(=O)N[C@@H]1[C@@H](N)C=C(C(=O)O)O[C@H]1C(=O)N1CCCC1
[1]
  IC50: 2900 nM
Neuraminidase [7]
  IC50: > 100 µg/mL

## CCCN(CCc1cccc(O)c1)C(=O)[C@@H]1OC(C(=O)O)=C[C@H](N)[C@H]1NC(C)=O
[1]
  IC50: 3 nM
Neuraminidase [4]
  IC50: 2.3 µM

## C=CCN(CC=C)C(=O)[C@@H]1OC(C(=O)O)=C[C@H](N)[C@H]1NC(C)=O
[5]
  IC50: 0.04 µM
Neuraminidase [6]
  IC50: 8.4 µM

## CC(=O)N[C@@H]1[C@@H](N)C=C(C(=O)O)O[C@H]1C(=O)NCC(=O)O
[5]
  IC50: > 480 µM

## CCCN(CCc1ccc(O)cc1)C(=O)[C@@H]1OC(C(=O)O)=C[C@H](N)[C@H]1NC(C)=O
[1]
  IC50: 9 nM
Neuraminidase [4]
  IC50: 1.9 µM

## CCCN(CCc1ccc(Cc2ccccc2)cc1)C(=O)[C@@H]1OC(C(=O)O)=C[C@H](N)[C@H]1NC(C)=O
[1]
  IC50: 270 nM
Neuraminidase [4]
  IC50: 5.2 µM

## CCC1CCC(CC)N1C(=O)[C@@H]1OC(C(=O)O)=C[C@H](N)[C@H]1NC(C)=O (stereo not given in full)
[1]
  IC50: 290 nM
Neuraminidase [4]
  IC50: 26 µM

## CCCN(CCC)C(=O)[C@@H]1OC(C(=O)O)=C[C@H](N)[C@H]1NC(C)=O
[8]
  IC50: 20 nM
Mus musculus [9]
  Reduction in virus titer: 82%
[10]
  half-life: 21 min
[11]
  IC50: 8 nM
Mus musculus [12]
  ED90: 2.1 mg/kg
[13]
  Vd: 0.4 L/kg
[14]
  IC50: 30 nM
[15]
  clearance: 12.5 mL/min/kg
[16]
  IC50: 3 nM
Mus musculus [17]
  Reduction in virus titer: 99.84%

## CCCN(C)C(=O)[C@@H]1OC(C(=O)O)=C[C@H](NC(=N)N)[C@H]1NC(C)=O
[8]
  IC50: 28 nM
Mus musculus [9]
  Reduction in virus titer: 95%
[10]
  half-life: 12.6 min
[11]
  IC50: 5.6 nM
Mus musculus [12]
  ED90: < 1 mg/kg
[13]
  Vd: 0.3 L/kg
[14]
  IC50: 26 nM
[15]
  clearance: 17.8 mL/min/kg
[16]
  IC50: 3 nM
Mus musculus [18]
  Reduction in virus titer: 74.5%
Mus musculus [17]
  Reduction in virus titer: 99.9%

## CCN(CC)C(=O)[C@@H]1OC(C(=O)O)=C[C@H](N)[C@H]1NC(C)=O
[8]
  IC50: 20 nM
[11]
  IC50: 40 nM
[14]
  IC50: 85 nM
[16]
  IC50: 5 nM
Neuraminidase [4]
  IC50: 0.36 µM

## CC(=O)N[C@@H]1[C@@H](NC(=N)N)C=C(C(=O)O)O[C@H]1C(=O)NCCN
[5]
  IC50: 20 µM

## CCCN(CCc1ccc(OC)cc1)C(=O)[C@@H]1OC(C(=O)O)=C[C@H](N)[C@H]1NC(C)=O
[1]
  IC50: 8 nM
Neuraminidase [4]
  IC50: 3.3 µM
